In PubChem BioAssay (NCI):
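Results reflect a 48-hour exposure of cells in 96-well plates to compound at five concentrations. GI50 is the concentration that inhibits growth by half. TGI: concentration producing complete growth inhibition.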

Legend:
Experiment in all cases: NCI-60 cell line screen, 48 h
[1] = tested on: CAKI-1 renal
[2] = tested on: MALME-3M melanoma
[3] = tested on: HCT-15 colon
[4] = tested on: OVCAR-5 ovarian
[5] = tested on: ACHN renal
[6] = tested on: KM12 colon
[7] = tested on: HOP-92 NSCLC
[8] = tested on: SNB-19 CNS
[9] = tested on: EKVX NSCLC
[10] = tested on: MDA-MB-231 breast

Structure (SMILES)	TGI [1]	TGI [2]	TGI [3]	TGI [4]	TGI [5]	TGI [6]	TGI [7]	TGI [8]	TGI [9]	GI50 [1]	GI50 [2]	GI50 [3]	GI50 [4]	GI50 [5]	GI50 [6]	GI50 [8]	GI50 [10]	TGI [10]	GI50 [9]	GI50 [7]
O=C1NC(=O)c2c1n(Cc1ccccc1)c(=O)n2Cc1ccccc1	> 100 µM	> 100 µM	> 100 µM	> 100 µM	> 100 µM	> 100 µM	> 100 µM	> 100 µM	> 100 µM											
COc1cc2c(cc1Nc1nc(N3CCc4ccccc43)c3cc[nH]c3n1)N(C(=O)CN(C)C)CC2	16.3 µM	11 µM	2.81 µM	5.63 µM	8.82 µM	2.81 µM		11.5 µM	13.9 µM	11 µM	5.03 µM	1.25 µM	1.22 µM	4.4 µM	1.49 µM	4.44 µM	5.86 µM	12.7 µM	5.11 µM	
CC1=N/C(=C\c2ccc(/C=C3/N=C(C)OC3=O)cc2)C(=O)O1	> 100 µM	> 100 µM	> 100 µM		> 100 µM	> 100 µM	> 100 µM	> 100 µM												
CCc1cccc(C)c1NC(=O)CCc1nc(=S)[nH][nH]1	> 100 µM	> 100 µM	> 100 µM	> 100 µM	> 100 µM	> 100 µM	> 100 µM	> 100 µM	> 100 µM											
CNCc1cccc2c1OCCOCCOCCN(C)S(=O)(=O)c1ccc(cc1)-c1cnc(N)c(n1)C(=O)N2	17.9 µM	3.72 µM	7.78 µM	8.57 µM	2.21 µM	14.6 µM		8.47 µM	12.7 µM	0.98 µM	1.53 µM	1.77 µM	3.39 µM	0.468 µM	2.29 µM	2.72 µM	2.28 µM	6.44 µM	2.83 µM	
N#C/C(=C\c1cc(OCc2ccccc2)c(OCc2ccccc2)cn1)C(N)=O	> 100 µM	> 100 µM	> 100 µM	> 100 µM	> 100 µM	> 100 µM	> 100 µM	> 100 µM	> 100 µM											
O=C1[C@@H]2C(c3c(Cl)cccc3Cl)=NO[C@@H]2C(=O)N1c1ccc(Cc2ccc(N3C(=O)[C@H]4C(c5c(Cl)cccc5Cl)=NO[C@H]4C3=O)cc2)cc1	> 100 µM	> 100 µM	> 100 µM	> 100 µM	> 100 µM	> 100 µM	> 100 µM		> 100 µM											
Cc1nc(N)nc(CCC(=O)Nc2cccc(C(F)(F)F)c2)c1-c1ccc(Cl)cc1	> 100 µM	> 100 µM	> 100 µM	> 100 µM	> 100 µM	> 100 µM	> 100 µM	> 100 µM	> 100 µM											
CCc1ccccc1NC(=O)c1cccc([N+](=O)[O-])c1O	> 100 µM	> 100 µM	> 100 µM	65.1 µM	62 µM	48.6 µM	45.4 µM	> 100 µM	> 100 µM											
O=C1CC(c2ccccc2)Oc2ccccc21 (centres undefined)	> 100 µM		> 100 µM		> 100 µM	> 100 µM	62.8 µM	83.4 µM	> 100 µM									94 µM		
Cc1c(C(=N)C(C#N)C#N)c(=N)oc2c1ccc1ccccc12	> 100 µM	80.7 µM	72.5 µM	> 100 µM	> 100 µM	> 100 µM		> 100 µM	> 100 µM	7.51 µM	22.3 µM	13.4 µM	39.5 µM	23.1 µM	26.2 µM	30.5 µM	19.1 µM	> 100 µM	4.45 µM	
COc1ccc(OC)c(NCC(=O)n2nc(/C=C\c3ccc(O)c(OC)c3)cc2/C=C\c2ccc(O)c(OC)c2)c1		14.6 µM	11.8 µM	5.54 µM		4.92 µM	53.8 µM	10.3 µM	15.6 µM		3.01 µM	2.09 µM	2.35 µM		1.81 µM	2.62 µM	3.02 µM	> 100 µM	3 µM	4.76 µM
O=[N+]([O-])c1ccc(Cl)c2c([N+](=O)[O-])cccc12		> 10 µM	> 10 µM			> 10 µM	> 10 µM	> 10 µM	> 10 µM											
N#CC1c2ccccc2C=CN1C(=O)CCCl (centres undefined)	22.7 µM	4.01 µM	9.55 µM	25.9 µM	3.22 µM	42.6 µM	3.76 µM	52.9 µM		8.38 µM	2 µM	2.87 µM	10.3 µM	1.73 µM	16.9 µM	20.1 µM	8.78 µM	23.8 µM		1.53 µM
O=C1NC(=N[C@@H](CO)c2ccccc2)S/C1=C\c1ccc2ncccc2c1	> 25 µM	> 25 µM	> 25 µM	> 25 µM	> 25 µM	> 25 µM	> 25 µM	> 25 µM		3.06 µM	13.4 µM	6.19 µM	> 25 µM	3.97 µM	10.8 µM	24.2 µM	> 23.1 µM	> 25 µM		11.1 µM
CCn1cc(C(=O)O)c(=O)c2cc(F)c(N3CCN(S(=O)(=O)c4cccc5ccccc45)CC3)cc21		7.83 µM	> 100 µM	> 100 µM	> 100 µM	9.2 µM	5.43 µM	> 100 µM			2.83 µM	3.15 µM	3.38 µM	2.88 µM	2.96 µM	3.47 µM	1.91 µM	4.71 µM		1.25 µM
COC(=O)C1C(C(=O)OC)C2C(=O)C3C(C(=O)OC)C(C(=O)OC)C3C(=O)C12 (centres undefined)	> 100 µM	> 100 µM		> 100 µM	> 100 µM	> 100 µM	> 100 µM	> 100 µM	> 100 µM											
N#CC(C(=O)C(=O)Nc1c(Cl)cccc1Cl)c1ccccc1 (centres undefined)	> 100 µM	> 100 µM	> 100 µM		> 100 µM	> 100 µM	> 100 µM	> 100 µM	> 100 µM	> 100 µM	> 100 µM	> 100 µM	> 100 µM	> 100 µM	> 100 µM	> 100 µM			> 100 µM	> 100 µM

Structure (SMILES)	TGI [1]	TGI [2]	TGI [3]	TGI [4]	TGI [5]	TGI [6]	TGI [7]	TGI [8]	TGI [9]	GI50 [1]	GI50 [2]	GI50 [3]	GI50 [4]	GI50 [5]	GI50 [6]	GI50 [8]	GI50 [10]	TGI [10]	GI50 [9]	GI50 [7]
COc1cc(Nc2cnc3ccc(C(F)(F)F)cc3n2)cc(OC)c1OC		> 100 µM	> 100 µM	> 100 µM	> 100 µM		> 100 µM	> 100 µM	> 100 µM											
O=[N+]([O-])c1ccccc1C1SCc2nc3ccccc3n21 (centres undefined)	> 100 µM	> 100 µM			> 100 µM	> 100 µM	> 100 µM	> 100 µM	> 100 µM											
CCCCCCCCCCCC[N+]1(CCCCCCCCCCCC)CCCC(C)C1 (centres undefined)	1.92 µM			2.29 µM	2.27 µM				1.65 µM				1.06 µM	0.984 µM					0.269 µM	
Nc1ncnc2c1N=C(c1ccc3c(c1)OCO3)CC(c1ccc(Cl)cc1)N2 (centres undefined)	86.3 µM	> 100 µM	> 100 µM	90.7 µM	> 100 µM	30.7 µM		> 100 µM	> 100 µM	22.7 µM	89.1 µM	3.05 µM	18.3 µM	8.25 µM	2.03 µM	> 100 µM	27 µM	> 100 µM	40.6 µM	
Cc1ccc2c(c1)CN1c3ccc(C)cc3CN2C1c1ccccc1O	> 100 µM	> 100 µM	> 100 µM	> 100 µM	> 100 µM	> 100 µM	> 100 µM		54.9 µM											
COC(=O)/C=C(/C(=O)OC)C1(C)c2cc(C(=O)OC)c(C(=O)OC)c(N)c2C(=N)N1c1ccccc1 (centres undefined)	56.1 µM	32.7 µM	> 100 µM	> 100 µM	48.7 µM	32.9 µM	43.6 µM	> 100 µM	> 100 µM											
OCc1cc2c(cn1)[nH]c1ccc(NCc3ccccc3)cc12	> 100 µM	> 100 µM	> 100 µM	> 100 µM	> 100 µM	43.3 µM	57.3 µM	> 100 µM	> 100 µM											
O=C(NC1C(=O)NNC1c1cccc([N+](=O)[O-])c1)c1ccccc1 (centres undefined)		> 100 µM		> 100 µM	> 100 µM	> 100 µM	> 100 µM	> 100 µM	> 100 µM											
O=C(NCCNCCO)c1ccc2c(c1)oc1cc3ccccc3c(=O)n12		> 50 µM	> 50 µM		> 50 µM	> 50 µM	> 50 µM	> 50 µM	> 50 µM		19.7 µM	38.4 µM		19 µM	9.32 µM	> 50 µM	29.8 µM	> 50 µM	37.8 µM	37.6 µM
O=C(Nc1cccc(-n2cc(-c3ccncc3)c(-c3cc(O)cc(Cl)c3)n2)c1)c1ccc(N2CCOCC2)c(C(F)(F)F)c1	6 µM	5.19 µM	11.3 µM	39.6 µM	29.3 µM	> 100 µM		33.6 µM		1.1 µM	1.38 µM	0.559 µM	14.8 µM	1.84 µM	1.21 µM	3.33 µM	0.327 µM	1.66 µM		
CCNc1nc(O)c(/C=C2\C=Nc3ncccc32)s1	> 100 µM		> 100 µM	> 100 µM	> 100 µM	12.4 µM	> 100 µM	> 100 µM	> 100 µM	3.66 µM		5.18 µM	2.37 µM	2.58 µM	3.05 µM	3.6 µM	4.17 µM	> 100 µM	16.6 µM	1.08 µM
COC(=O)C1C(=O)O[C@@H](c2ccc3c(c2)OCO3)C1C(=O)OC (mixture of isomers)	> 100 µM	> 100 µM	> 100 µM	> 100 µM	> 100 µM	> 100 µM	> 100 µM	> 100 µM	> 100 µM											
NNC(=O)C(=O)N/N=C1/CCCC1C(=O)CCC(=O)Nc1ccc(Cl)cc1 (centres undefined)	> 100 µM	> 100 µM	> 100 µM	> 100 µM	> 100 µM	> 100 µM	> 100 µM	> 100 µM	> 100 µM											
CCOC(=O)c1nc(C)oc1C(F)(F)F	> 100 µM	> 100 µM	> 100 µM	> 100 µM	> 100 µM	> 100 µM	> 100 µM	> 100 µM	> 100 µM											
COc1nc2c(c(O)c(C)c(=O)n2OC2OCC(OC(C)=O)C(OC(C)=O)C2OC(C)=O)c(=O)n1C (centres undefined)			> 100 µM	> 100 µM	> 100 µM	> 100 µM		> 100 µM	> 100 µM											
COc1ccc(OC)c(/C=C/c2nc(=S)n(-c3ccc(Cl)cc3)[nH]2)c1		> 100 µM	> 100 µM	> 100 µM	> 100 µM	> 100 µM	> 100 µM	> 100 µM	> 100 µM		70.6 µM	4.39 µM	70.3 µM	23.8 µM	4.03 µM	12.7 µM	14.5 µM	> 100 µM	30 µM	3.56 µM
FC(F)(F)Oc1cccc(-c2cc(NCCCCCCNc3cc(-c4cccc(OC(F)(F)F)c4)nc4ccc(N5CCCC5)cc34)c3cc(N4CCCC4)ccc3n2)c1	3.01 µM	3.1 µM	3.69 µM	3.18 µM		3.27 µM	3.18 µM	2.98 µM		1.65 µM	1.68 µM	1.84 µM	1.76 µM		1.74 µM	1.55 µM	1.72 µM	3.16 µM		1.54 µM
C[C@]12Cc3cn[nH]c3C(=O)C1CC[C@@H]1C2CC[C@@]2(C)C1CC[C@@H]2O (some centres undefined)	> 100 µM	> 100 µM	> 100 µM	> 100 µM	> 100 µM	> 100 µM	> 100 µM	> 100 µM	> 100 µM											
